Laboratory results reported in the supplement of paper PMC11451515.

Tested on: NOMO1
Test: cell viability relative to DMSO control; higher = less cytotoxic
Details: 48 h
Method in brief: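 Viability is expressed as a percentage of DMSO wells within each plate, and cell-free wells serve as background. Seeding densities in the 1536-well plates (5 μl) were 500 cells/well for NOMO1 or SEM leukemia cells and 1000 cells/well for P12-Ichikawa. Each line was adapted for at least four passages in each medium. Library compounds in DMSO were pin-dosed at 47 μM to 0.79 nM (11 points, threefold), and CellTiter-Glo One luminescence was read after 48 h at 37°C.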

[1] = HPLM + 10% dialyzed FBS, 0.000781 µM
[2] = HPLM + 10% dialyzed FBS, 0.00234 µM
[3] = HPLM + 10% dialyzed FBS, 0.00702 µM
[4] = HPLM + 10% dialyzed FBS, 0.0211 µM
[5] = HPLM + 10% dialyzed FBS, 0.0632 µM
[6] = HPLM + 10% dialyzed FBS, 0.19 µM
[7] = HPLM + 10% dialyzed FBS, 0.569 µM
[8] = HPLM + 10% dialyzed FBS, 1.71 µM
[9] = HPLM + 10% dialyzed FBS, 5.12 µM
[10] = HPLM + 10% dialyzed FBS, 15.4 µM
[11] = HPLM + 10% dialyzed FBS, 46.1 µM
[12] = RPMI 5 mM glucose + 10% FBS, 0.000781 µM
[13] = RPMI 5 mM glucose + 10% FBS, 0.00234 µM
[14] = RPMI 5 mM glucose + 10% FBS, 0.00702 µM
[15] = RPMI 5 mM glucose + 10% FBS, 0.0211 µM
[16] = RPMI 5 mM glucose + 10% FBS, 0.0632 µM
[17] = RPMI 5 mM glucose + 10% FBS, 0.19 µM
[18] = RPMI 5 mM glucose + 10% FBS, 0.569 µM
[19] = RPMI 5 mM glucose + 10% FBS, 1.71 µM
[20] = RPMI 5 mM glucose + 10% FBS, 5.12 µM
[21] = RPMI 5 mM glucose + 10% FBS, 15.4 µM
[22] = RPMI 5 mM glucose + 10% FBS, 46.1 µM
[23] = RPMI 5 mM glucose + 10% dialyzed FBS, 0.000781 µM
[24] = RPMI 5 mM glucose + 10% dialyzed FBS, 0.00234 µM
[25] = RPMI 5 mM glucose + 10% dialyzed FBS, 0.00702 µM
[26] = RPMI 5 mM glucose + 10% dialyzed FBS, 0.0211 µM
[27] = RPMI 5 mM glucose + 10% dialyzed FBS, 0.0632 µM
[28] = RPMI 5 mM glucose + 10% dialyzed FBS, 0.19 µM
[29] = RPMI 5 mM glucose + 10% dialyzed FBS, 0.569 µM
[30] = RPMI 5 mM glucose + 10% dialyzed FBS, 1.71 µM
[31] = RPMI 5 mM glucose + 10% dialyzed FBS, 5.12 µM
[32] = RPMI 5 mM glucose + 10% dialyzed FBS, 15.4 µM
[33] = RPMI 5 mM glucose + 10% dialyzed FBS, 46.1 µM

Compound	cell viability [1]	cell viability [2]	cell viability [3]	cell viability [4]	cell viability [5]	cell viability [6]	cell viability [7]	cell viability [8]	cell viability [9]	cell viability [10]	cell viability [11]	cell viability [12]	cell viability [13]	cell viability [14]	cell viability [15]	cell viability [16]	cell viability [17]	cell viability [18]	cell viability [19]	cell viability [20]	cell viability [21]	cell viability [22]	cell viability [23]	cell viability [24]	cell viability [25]	cell viability [26]	cell viability [27]	cell viability [28]	cell viability [29]	cell viability [30]	cell viability [31]	cell viability [32]	cell viability [33]
O=C1c2c(O)cccc2[C@H]([C@@H]2O[C@H](CO)[C@@H](O)[C@H](O)[C@H]2O)c2cc(CO)cc(O)c21	87%	101%	97.9%	77%	110%	122%	102%	102%	111%	93.4%	97.5%	87.8%	91.8%	81%	80.8%	94.5%	79.8%	80.3%	83.1%	83.1%	85.8%	84.6%	84.7%	80.2%	106%	88.3%	87.6%	96.6%	96.3%	86.6%	89%	83.1%	94.6%
NC(=O)c1ccc(-c2nc(-c3ccc4c(c3)OCCO4)c(-c3ccccn3)[nH]2)cc1	–	–	–	–	–	–	–	–	–	–	–	105%	104%	104%	106%	118%	119%	121%	114%	122%	107%	114%	121%	119%	119%	118%	134%	113%	131%	125%	114%	116%	119%
COc1cc(N2CCC(C(N)=O)CC2)ccc1Nc1nc(N)c(Cl)c(Nc2ccccc2[S+](=O)([O-])C(C)C)n1	85.6%	79.1%	99.3%	98.3%	84.8%	96.5%	99.6%	87.1%	66%	46.7%	2.93%	91.9%	83.5%	94%	89.9%	89%	96.4%	92%	91.2%	75.5%	65.9%	2.25%	83.9%	94.2%	90.9%	80.1%	96.4%	93.8%	89.6%	80.4%	60.7%	54.1%	4.26%
CC[C@H]1OC(=O)[C@H](C)[C@@H](O[C@H]2C[C@@](C)(OC)[C@@H](O)[C@H](C)O2)[C@H](C)[C@@H](O[C@@H]2O[C@@H](C)C[C@H](N(C)C)[C@H]2O)[C@](C)(O)C[C@@H](C)C(=O)[C@H](C)[C@@H](O)[C@]1(C)O	86.3%	80.4%	97.4%	93%	105%	105%	108%	87%	80.9%	63.4%	56.7%	77.5%	81%	79.8%	94.9%	91.8%	92.1%	88.8%	84.9%	81%	88.8%	55%	77.8%	90.3%	91%	91.6%	102%	86.8%	93.3%	101%	90.3%	95.3%	51.8%
CNC(=O)[C@H](Cc1ccccc1)NC(=O)[C@H](CC(C)C)[C@H](CSc1cccs1)C(=O)NO	79.9%	100%	91.7%	101%	86.8%	93.7%	97.8%	94.7%	89.4%	77.8%	79.7%	85.6%	76.9%	73.4%	81.1%	93.5%	87.7%	87.2%	95.4%	75%	78.3%	91.8%	78.9%	89%	81.5%	96.7%	87.6%	89.1%	101%	92.8%	83%	70.8%	81.3%
COc1cc2c(Nc3ccc(NC(=O)c4ccccc4)cc3)ncnc2cc1OCCCN1CCOCC1	122%	124%	128%	126%	137%	133%	144%	122%	103%	114%	115%	–	–	–	–	–	–	–	–	–	–	–	–	–	–	–	–	–	–	–	–	–	–
COc1ccc(Cc2nccc3cc(OC)c(OC)cc23)cc1OC	–	–	–	–	–	–	–	–	–	–	–	115%	118%	124%	117%	105%	108%	138%	110%	103%	114%	23.3%	–	–	–	–	–	–	–	–	–	–	–
C[C@@H]1C[C@H]2[C@@H]3\C=C(C)/C4=C/C5=C(C[C@]4(C)[C@H]3[C@@H](O)C[C@]2(C)[C@@]1(O)C(=O)COC(C)=O)C=N[N]5C6=CC=CC=C6	116%	123%	114%	113%	123%	106%	106%	106%	104%	108%	90%	–	–	–	–	–	–	–	–	–	–	–	127%	121%	110%	122%	125%	114%	109%	108%	104%	109%	100%
FC(F)(F)c1ccc(Nc2nc3cc(Oc4ccnc(-c5ncc(C(F)(F)F)[nH]5)c4)ccc3[nH]2)cc1	–	–	–	–	–	–	–	–	–	–	–	–	–	–	–	–	–	–	–	–	–	–	109%	124%	136%	133%	136%	132%	131%	145%	130%	148%	89.3%
Cc1ccc(-n2nc(C(C)(C)C)cc2NC(=O)Nc2ccc(OCCN3CCOCC3)c3ccccc23)cc1	104%	103%	119%	123%	114%	104%	111%	115%	120%	114%	96%	102%	101%	113%	103%	104%	97.1%	107%	106%	95.8%	95.4%	98.1%	88.2%	105%	111%	106%	106%	108%	118%	120%	99.9%	107%	96.2%
CCC[C@@H]1C[C@@H](C(=O)N[C@@H]([C@H]2O[C@H](SC)[C@H](O)[C@@H](O)[C@H]2O)[C@@H](C)O)N(C)C1.Cl	103%	121%	123%	122%	125%	128%	110%	100%	79%	96%	68.8%	129%	121%	107%	111%	114%	111%	124%	103%	111%	124%	111%	118%	112%	119%	105%	119%	109%	111%	108%	107%	104%	98%
CC[C@]1(O)C[C@H]2CN(CCC3=C([NH]C4=C3C=CC=C4)[C@@](C2)(C(=O)OC)C5=CC6=C(C=C5OC)N(C=O)[C@H]7[C@](O)([C@H](OC(C)=O)[C@]8(CC)\C=C/C[N@@]9CC[C@]67[C@H]89)C(=O)OC)C1	119%	117%	127%	110%	35.3%	34.7%	43.2%	47%	47.1%	50.9%	41.6%	120%	118%	127%	116%	38.9%	24.4%	23%	30.7%	28.6%	30.4%	25.8%	–	–	–	–	–	–	–	–	–	–	–
Cc1[nH]c(/C=C2\C(=O)Nc3ccc([S+](=O)([O-])N(C)c4cccc(Cl)c4)cc32)c(C)c1C(=O)N1CCN(C)CC1	114%	131%	123%	103%	119%	99.2%	115%	120%	109%	103%	10.1%	–	–	–	–	–	–	–	–	–	–	–	–	–	–	–	–	–	–	–	–	–	–
CO/N=C(/C(=O)N[C@@H]1C(=O)N2C(C(=O)O)=C(Cn3ccc(=N)n3CCO)CS[C@H]12)c1csc(N)n1	104%	115%	131%	136%	130%	116%	120%	130%	137%	133%	166%	–	–	–	–	–	–	–	–	–	–	–	112%	117%	129%	133%	138%	140%	130%	123%	153%	138%	134%
CCCCCCCCCCCC(CC1OC(=O)C1CCCCCC)OC(=O)C(CC(C)C)NC=O (stereo not drawn)	92.9%	105%	100%	109%	110%	114%	118%	114%	109%	98.8%	13.7%	93.5%	104%	95.3%	94.9%	114%	97.8%	102%	97.2%	100%	102%	31%	92.4%	102%	107%	91.7%	107%	102%	95.1%	105%	96.4%	89.2%	37.2%
COCCOC(=O)C/1=C(C)/NC/2=C(C1C3=CC=CC(=C3)O)/C(=O)CC(C2)C4=C(OC)C=CC=C4 (stereo not drawn)	96.9%	105%	93.2%	118%	116%	104%	124%	97.9%	102%	87.5%	59.3%	82.5%	89.6%	110%	118%	119%	99.7%	99.7%	99.5%	97.3%	96.9%	78.5%	89.4%	105%	99.7%	99.6%	114%	109%	112%	99.2%	109%	91.4%	85.2%
CO[C@H]1C[C@@H]2CC[C@@H](C)[C@@](O)(O2)C(=O)C(=O)N2CCCC[C@H]2C(=O)O[C@H]([C@H](C)C[C@@H]2CC[C@@H](OP(C)(C)=O)[C@H](OC)C2)CC(=O)[C@H](C)/C=C(\C)[C@@H](O)[C@@H](OC)C(=O)[C@H](C)C[C@H](C)/C=C/C=C/C=C/1C	110%	114%	109%	116%	106%	113%	102%	105%	96.7%	97%	94.5%	–	–	–	–	–	–	–	–	–	–	–	122%	113%	118%	115%	117%	121%	120%	125%	124%	103%	120%
